EPA's ToxValDB 9.5 (doi:10.2903/j.efsa.2009.1350)
Values after ≈ are worked out from the molar mass of the structure shown.

How the values were obtained:
Rattus norvegicus = conditions: for LD50: acute; for NOAEL: histopathology: nonneoplastic
Typhlodromus pyri = test: LR50; higher = less toxic; conditions: acute; duration: 7 days; mortality
Neomysis kadiakensis = conditions: chronic/long-term; duration: 28 days; reproduction
Canidae = conditions: subchronic; duration: 90 days; oral; diet; Dog Other; clinical signs
Anas platyrhynchos = conditions: for NOEC: reproductive
Bibionidae = conditions: chronic/long-term; duration: 28 days
Lolium perenne = conditions: acute; duration: 21 days; other
Apis mellifera = conditions: acute; duration: 48 hours; oral; unspecified; mortality
Daphnia magna = conditions: chronic/long-term; duration: 21 days; reproduction
Cyprinodon variegatus = conditions: mortality

Question: For CCCOc1nc2ccccc2c(=O)n1CCC [2-Propoxy-3-propyl-4(3H)-quinazolinone], which LD50 (Rattus norvegicus; oral, mortality) is on record?
Answer: 2050 mg/kg-day

Question: Which LR50 (Typhlodromus pyri) does the source give for CCCOc1nc2ccc(I)cc2c(=O)n1CCC [Proquinazid] here?
Answer: 47.9 g/ha

Question: What about the LC50 (Tagia sp.; acute, duration: 14 days, mortality) of the same compound?
Answer: > 1000 mg/kg

Question: What about the NOEC (Tagia sp.; chronic/long-term, duration: 56 days) of the same compound?
Answer: > 50.9 mg/kg

Question: And the NOEC (Neomysis kadiakensis)?
Answer: 0.0105 mg/L

Question: And the NOAEL (Canidae)?
Answer: 19 mg/kg-day

Question: And the NOEC (Anas platyrhynchos; F)?
Answer: 29.6 mg/kg-day

Question: And the NOEC (Anas platyrhynchos; M)?
Answer: 31.5 mg/kg-day

Question: What about the LC50 (Anas platyrhynchos; short-term, oral, feed, mortality) of the same compound?
Answer: 3110 mg/kg-day

Question: What about the NOEC (Bibionidae) of the same compound?
Answer: 0.465 mg/L

Question: What about the LEL (Lolium perenne) of the same compound?
Answer: 75 g/ha

Question: And the LD50 (Rattus norvegicus; oral, mortality)?
Answer: 4850 mg/kg-day

Question: And the NOAEL (Rattus norvegicus; chronic, duration: 2 years)?
Answer: 1.2 mg/kg-day

Question: And the NOEL (Rattus norvegicus; chronic, mortality)?
Answer: > 600 mg/kg-day

Question: What about the NOEL (Rattus norvegicus; reproduction developmental, reproduction) of the same compound?
Answer: 35.1 mg/kg-day

Question: And the NOAEL (Rattus norvegicus; subchronic, duration: 90 days, oral, diet)?
Answer: 2 mg/kg-day

Question: What about the LC50 (Oncorhynchus mykiss; acute, duration: 96 hours, mortality) of the same compound?
Answer: 0.349 µg/mL (≈ 0.938 µM)

Question: What about the NOEC (Oncorhynchus mykiss; chronic/long-term, duration: 90 days, other) of the same compound?
Answer: 0.003 mg/L

Question: And the LC50 (Colinus virginianus; acute, oral, diet, mortality)?
Answer: 1370 mg/kg-day

Question: And the LD50 (Colinus virginianus; acute, oral, mortality)?
Answer: > 2250 mg/kg-day

Question: What about the NOEC (Colinus virginianus; reproduction developmental) of the same compound?
Answer: 7.78 mg/kg-day

Question: What about the LD50 (Apis mellifera) of the same compound?
Answer: > 125 µg/piece

Question: And the NOEC (Daphnia magna)?
Answer: 0.0018 mg/L

Question: What about the LC50 (Cyprinodon variegatus; acute, duration: 96 hours) of the same compound?
Answer: > 0.58 µg/mL

Question: What about the NOEC (Cyprinodon variegatus; chronic/long-term, duration: 36 days) of the same compound?
Answer: 0.00872 mg/L
